Assay results from patent US7550629B2, “Trifluoromethyl-containing phenylsulfonamide beta amyloid inhibitors” (Wyeth, priority 2006, dated 2009).

Columns and labels:
beta amyloid 40 = assay: Aβ40/42 ELISA Assay: Aβ40; type: cell-based; settings: Cricetulus griseus; CHO cells carrying the APP-REP-NL plasmid, 22 hours, sandwich ELISA of medium
Experimental: (§1) Pharmacology: Aβ40/42 ELISA Assay
(§2) Compounds are diluted from DMSO stocks to 2 μM and below in a cell culture medium. Compounds are then applied to CHO cells carrying the APP-REP-NL plasmid [Sudhir et. al, J. Biol. Chem. 267:25602-25608 (1992)] for a period of 22 hours. After the conditioning period, medium is collected, diluted in assay buffer containing protein, and samples, controls, and synthetic peptide standards are incubated on a prepared ELISA plate. Using a sandwich ELISA with antibodies specifically directed against the carboxyl terminus of beta amyloid 40 or 42 [analogous to the method reported by Haugabook et al., J. Neurosci. Methods 108:171-179 (2001) but using goat anti-mouse IgGl (source: Southern Biotech) as the anchor, 6E10 as the capture antibody (Source: SENETEK), rabbit antiαβ40 and antiαβB42 (source: QCB) and APL-donkey anti-rabbit IgG (H+L, source: Southern Biotech) as the detection antibody], the effect of the compound treatment on the cellular production of extracellular beta amyloid is quantified. Cells treated with compound are subsequently incubated in cell culture medium containing […]. After a short incubation period, MTS/medium containing plates are read in a spectrophotometer to determine the extent to which compound toxicity affected the cell's metabolism and ability to synthesize beta amyloid.
(§3) Test Samples: compound samples are supplied as 20 mM stock solutions in a 100% DMSO solution.
(§4) APP-REP-NL cells: Qualified cell lines are carried from week to week using 1:100 dilutions and are cultured in DMEM supplemented with 1× antibiotic/antimycotic, 200 μg/ml of G418 antibiotic, and 10% certified fetal calf serum. Cells are also banked in liquid nitrogen. Periodically, beta amyloid production is assessed, and cells are either kept in culture or replaced with progenitors at full expression.
(§5) Antibodies: Are from certified lots that have already been qualified in this assay. Antibodies are stored in small frozen aliquots at −80° C. that are thawed and used.
(§6) A compound is considered active if it has an EC50 for Aβ 40 reduction of <100 μM and no toxicity at doses in the vicinity the EC50.

beta amyloid 42 = assay: Aβ40/42 ELISA Assay: Aβ42; type: cell-based; settings: Cricetulus griseus; CHO cells carrying the APP-REP-NL plasmid, 22 hours, sandwich ELISA of medium
Experimental: as §1, §2, §3, §4, §5, §6

Row | EC50 (beta amyloid 40) | EC50 (beta amyloid 42) | SMILES
1 | 6.72 µM | 8.62 µM | O=S(=O)(NC(CO)C(C(F)(F)F)C(F)(F)F)c1ccc(F)c(Cl)c1 (centres unmarked) [Example 39, 3-chloro-4-fluoro-N-[3,3,3-trifluoro-1-(hydroxymethyl)-2-(trifluoromethyl)propyl]benzenesulfonamide]
2 | 24.1 µM |  | COc1cccc(S(=O)(=O)NC(CO)C(C(F)(F)F)C(F)(F)F)c1 (centres unmarked) [Example 12, 3-methoxy-N-[3,3,3-trifluoro-1-(hydroxymethyl)-2-(trifluoromethyl)propyl]benzenesulfonamide]
3 | 32.2 µM | 45.4 µM | O=S(=O)(NC(CO)C(C(F)(F)F)C(F)(F)F)c1ccc(F)c(F)c1F (centres unmarked) [Example 40, 2,3,4-trifluoro-N-(3,3,3-trifluoro-1-hydroxymethyl-2-trifluoromethyl-propyl)-benzenesulfonamide]
4 | 5.72 µM | 6.34 µM | O=S(=O)(NC(CO)C(C(F)(F)F)C(F)(F)F)c1cc(F)cc(F)c1 (centres unmarked) [Example 22, 3,5-Difluoro-N-(3,3,3-trifluoro-1-hydroxymethyl-2-trifluoromethyl-propyl)-benzenesulfonamide]
5 | 64 µM |  | O=S(=O)(NC(CO)C(C(F)(F)F)C(F)(F)F)c1cc(Cl)cc(Cl)c1 (centres unmarked) [Example 36, 3,5-dichloro-N-(3,3,3-trifluoro-1-hydroxymethyl-2-trifluoromethyl-propyl)-benzenesulfonamide]
6 | 0.423 µM | 0.384 µM | C[C@@H]([C@@H](CO)NS(=O)(=O)c1ccc(Cl)cc1)C(F)(F)F [Example 43, 4-Chloro-N-[(1S,2S)-3,3,3-trifluoro-1-(hydroxymethyl)-2-methylpropyl]benzenesulfonamide]
7 | 7.2 µM | 6.75 µM | CCc1ccc(S(=O)(=O)NC(CO)C(C(F)(F)F)C(F)(F)F)cc1 (centres unmarked) [Example 9, 4-ethyl-N-[3,3,3-trifluoro-1-(hydroxymethyl)-2-(trifluoromethyl)propyl]benzenesulfonamide]
8 | 6.63 µM | 8.37 µM | Cc1cc(S(=O)(=O)NC(CO)C(C(F)(F)F)C(F)(F)F)ccc1F (centres unmarked) [Example 25, 4-Fluoro-3-methyl-N-(3,3,3-trifluoro-1-hydroxymethyl-2-trifluoromethyl-propyl)-benzenesulfonamide]
9 | 4.46 µM | 4.02 µM | O=S(=O)(NC(CO)C(C(F)(F)F)C(F)(F)F)c1ccc(OC(F)F)cc1 (centres unmarked) [Example 7, 4-(difluoromethoxy)-N-[3,3,3-trifluoro-1-(hydroxymethyl)-2-(trifluoromethyl)propyl]benzenesulfonamide]
10 | 90.7 µM | 101 µM | N#Cc1ccc(S(=O)(=O)NC(CO)C(C(F)(F)F)C(F)(F)F)cc1 (centres unmarked) [Example 18, 4-Cyano-N-(3,3,3-trifluoro-1-hydroxymethyl-2-trifluoromethyl-propyl)-benzenesulfonamide]
11 | 27.8 µM | 26.8 µM | O=[N+]([O-])c1ccc(S(=O)(=O)NC(CO)C(C(F)(F)F)C(F)(F)F)cc1 (centres unmarked) [Example 19, 4-nitro-N-(3,3,3-trifluoro-1-hydroxymethyl-2-trifluoromethyl-propyl)-benzenesulfonamide]
12 | 1.09 µM | 1.14 µM | O=S(=O)(NC(CO)C(C(F)(F)F)C(F)(F)F)c1ccc(Cl)c(F)c1 (centres unmarked) [Example 24, 4-Chloro-3-fluoro-N-(3,3,3-trifluoro-1-hydroxymethyl-2-trifluoromethyl-propyl)-benzenesulfonamide]
13 | 22.3 µM |  | CSc1cc(S(=O)(=O)NC(CO)C(C(F)(F)F)C(F)(F)F)ccc1Cl (centres unmarked) [Example 23, 4-Chloro-3-methylsulfanyl-N-(3,3,3-trifluoro-1-hydroxymethyl-2-trifluoromethyl-propyl)-benzenesulfonamide]
14 | 46 µM | 76.9 µM | O=[N+]([O-])c1cc(S(=O)(=O)NC(CO)C(C(F)(F)F)C(F)(F)F)ccc1Cl (centres unmarked) [Example 5, 4-Chloro-3-nitro-N-(3,3,3-trifluoro-1-hydroxymethyl-2-trifluoromethyl-propyl)-benzenesulfonamide]
15 | 6.81 µM | 6.44 µM | COc1ccc(S(=O)(=O)NC(CO)C(C(F)(F)F)C(F)(F)F)cc1 (centres unmarked) [Example 11, 4-methoxy-N-[3,3,3-trifluoro-1-(hydroxymethyl)-2-(trifluoromethyl)propyl]benzenesulfonamide]
16 | 25.4 µM | 24.5 µM | O=S(=O)(NC(CO)C(C(F)(F)F)C(F)(F)F)c1ccccc1Cl (centres unmarked) [Example 30, 2-chloro-N-(3,3,3-trifluoro-1-hydroxymethyl-2-trifluoromethyl-propyl)-benzenesulfonamide]

Row | EC50 (beta amyloid 40) | EC50 (beta amyloid 42) | SMILES
17 | 0.518 µM | 0.504 µM | O=S(=O)(NC(CO)C(CC(F)(F)F)CC(F)(F)F)c1ccc(Cl)cc1 (centres unmarked) [Example 45, 4-Chloro-N-[4,4,4-trifluoro-1-hydroxymethyl-2-(2,2,2-trifluoro-ethyl)-butyl]-benzenesulfonamide]
18 | 8.51 µM | 6.42 µM | O=S(=O)(NC(CO)C(C(F)(F)F)C(F)(F)F)c1ccc(OC(F)(F)F)cc1 (centres unmarked) [Example 20, N-(3,3,3-trifluoro-1-hydroxymethyl-2-trifluoromethyl-propyl)-4-trifluoromethoxy-benzenesulfonamide]
19 | 9.77 µM | 11.2 µM | O=S(=O)(NC(CO)C(C(F)(F)F)C(F)(F)F)c1ccc(F)cc1F (centres unmarked) [Example 35, 2,4-difluoro-N-(3,3,3-trifluoro-1-hydroxymethyl-2-trifluoromethyl-propyl)-benzenesulfonamide]
20 | 11.1 µM | 14 µM | O=S(=O)(NC(CO)C(C(F)(F)F)C(F)(F)F)c1cccc(Cl)c1Cl (centres unmarked) [Example 37, 2,3-dichloro-N-(3,3,3-trifluoro-1-hydroxymethyl-2-trifluoromethyl-propyl)-benzenesulfonamide]
21 | 1.13 µM | 1.21 µM | O=S(=O)(NC(CO)C(C(F)(F)F)C(F)(F)F)c1ccc(F)cc1 (centres unmarked) [Example 26, 4-Fluoro-N-[3,3,3-trifluoro-1-(hydroxymethyl)-2-(trifluoromethyl)propyl]benzene sulfonamide]
22 | 4.68 µM | 6.55 µM | O=S(=O)(NC(CO)C(C(F)(F)F)C(F)(F)F)c1ccc(Cl)c(Cl)c1 (centres unmarked) [Example 38, 3,4-dichloro-N-(3,3,3-trifluoro-1-hydroxymethyl-2-trifluoromethyl-propyl)-benzenesulfonamide]
23 | 28.1 µM |  | O=S(=O)(NC(CO)C(C(F)(F)F)C(F)(F)F)c1cccc(C(F)(F)F)c1 (centres unmarked) [Example 16, N-[3,3,3-trifluoro-1-(hydroxymethyl)-2-(trifluoromethyl)propyl]-3-(trifluoromethyl)benzenesulfonamide]
24 | 2.94 µM | 3.51 µM | C[C@H]([C@@H](CO)NS(=O)(=O)c1ccc(Cl)cc1)C(F)(F)F [Example 44, 4-Chloro-N-[(1S,2R)-3,3,3-trifluoro-1-(hydroxymethyl)-2-methylpropyl]benzenesulfonamide]
25 | 47.9 µM |  | O=S(=O)(NC(CO)C(C(F)(F)F)C(F)(F)F)c1cccc(OC(F)F)c1 (centres unmarked) [Example 8, 3-(difluoromethoxy)-N-[3,3,3-trifluoro-1-(hydroxymethyl)2-(trifluoromethyl)propyl]benzenesulfonamide]
26 | 5.57 µM | 5.37 µM | O=S(=O)(N[C@H](CO)C(C(F)(F)F)C(F)(F)F)c1ccc(Cl)c(Cl)c1 [Example 41, (S)-3,4-Dichloro-N-[3,3,3-trifluoro-1-(hydroxymethyl)-2-(trifluoromethyl)propyl]benzene sulfonamide]
27 | 13.4 µM | 11.2 µM | CC(=O)c1cccc(S(=O)(=O)NC(CO)C(C(F)(F)F)C(F)(F)F)c1 (centres unmarked) [Example 6, 3-Acetyl-N-(3,3,3-trifluoro-1-hydroxymethyl-2-trifluoromethyl-propyl)-benzenesulfonamide]
28 | 6.26 µM | 7.02 µM | O=S(=O)(NC(CO)C(C(F)(F)F)C(F)(F)F)c1ccccc1 (centres unmarked) [Example 33, N-(3,3,3-trifluoro-1-hydroxymethyl-2-trifluoromethyl-propyl)-benzenesulfonamide]
29 | 23.4 µM | 44.2 µM | O=S(=O)(NC(CO)C(C(F)(F)F)C(F)(F)F)c1ccccc1F (centres unmarked) [Example 28, 2-fluoro-N-(3,3,3-trifluoro-1-hydroxymethyl-2-trifluoromethyl-propyl)-benzenesulfonamide]
30 | 5.07 µM | 4.84 µM | C[C@@H]([C@@H](CO)NS(=O)(=O)c1ccc(Cl)c(Cl)c1)C(F)(F)F [Example 46, 3,4-Dichloro-N-[(1S,2S)-3,3,3-trifluoro-1-(hydroxymethyl)-2-methylpropyl]benzenesulfonamide]
31 | 18 µM |  | CCCc1ccc(S(=O)(=O)NC(CO)C(C(F)(F)F)C(F)(F)F)cc1 (centres unmarked) [Example 13, 4-propyl-N-[3,3,3-trifluoro-1-(hydroxymethyl)-2-(trifluoromethyl)propyl]benzenesulfonamide]
